From US20100144755A1 (Glaxo Group Limited, priority 2006, published 2010)
Where a name gives a salt, the structure may show the parent alone.

Experiments:
[1] = tested on: TNF-stimulated IL8 production by human neutrophils; assay: TNF-stimulated IL-8 production from human neutrophils; format: cell-based; conditions: Neutrophil, TNF 100 ng/ml, about 20 hrs, bounds reflect the top concentration screened, for 202(c) and 120 a range over multiple runs with ends given as 'greater than';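 also: IL-8 in cell-free supernatant quantified by sandwich ELISA, inhibition calculated against a compound-free control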
Procedure: TNF-Stimulated IL-8 Production from Human Neutrophils
The effect of test compounds on TNF-stimulated IL8 production by human neutrophils is measured as follows. Neutrophils are prepared from blood obtained from consenting donors, using standard methods. Blood is collected in heparinized syringes and layered over histopaque (30 ml/20 ml). Following centrifugation, the red cell pellet is resuspended in PBS and purified over a dextran gradient. […] Cells are added (0.5-1 ml) to 48 well plates already containing compound at 1000× final concentration in neat DMSO or 10% DMSO in RPMI1640 with 10% FBS. TNF (final concentration 100 ng/ml) is used as the stimulus. Cells incubated for approximately 20 hrs at 37° C., 5% CO2. Levels of IL-8 in the cell free supernatant are determined by sandwich ELISA, and inhibition relative to a control with DMPO but no compound is calculated.

[2] = target: T1, Recombinant human p38α (Homo sapiens, UniProt Q16539); assay: Fluorescence anisotropy kinase binding assay (standard and low volume)
T1 construct: His; made in house
Source text: Fluorescence Anisotropy Kinase Binding Assay—Standard Volume
(§1) The concentration of kinase enzyme should preferably be ≧2×Kf. The concentration of fluorescent ligand required will depend on the instrumentation used, and the fluorescent and physicochemical properties. The concentration used must be lower than the concentration of kinase enzyme, and preferably less than half the kinase enzyme concentration.
The fluorescent ligand is the following compound:
which is derived from 5-[2-(4-aminomethylphenyl)-5-pyridin-4-yl-1H-imidazol-4-yl]-2-chlorophenol and rhodamine green.
Recombinant human p38α was expressed as a GST-tagged protein. To activate this protein, 3.5 μM unactivated p38α was incubated in 50 mM Tris-HCl pH 7.5, 0.1 mM EGTA, 0.1% 2-mercaptoethanol, 0.1 mM sodium vanadate, 10 mM MgAc, 0.1 mM ATP with 200 nM MBP-MKK6 DD at 30 degrees for 30 mins. Following activation p38α was re-purified and the activity assessed using a standard filter-binding assay.
(§2) Protocol: All components are dissolved in buffer of composition 62.5 mM HEPES, pH 7.5, 1.25 mM CHAPS, 1 mM DTT, 12.5 mM MgCl2 with final concentrations of 12 nM p38α and 5 nM fluorescent ligand. 30 μl of this reaction mixture is added to wells containing 1 μl of various concentrations of test compound (0.28 nM-16.6 μM final) or DMSO vehicle (3% final) in NUNC 384 well black microtitre plate and equilibrated for 30-60 mins at room temperature. Fluorescence anisotropy is read in Molecular Devices Acquest (excitation 485 nm/emission 535 nm).
Definitions: Ki=dissociation constant for inhibitor binding • Kf=dissociation constant for fluorescent ligand binding
Fluorescence Anisotropy Kinase Binding Low Volume Assay
as §1, with “2×Kf.” for “≧2×Kf.”
as §2, with “containing 0.1” for “containing 1”, “compound (0.02 nM-25” for “compound (0.28 nM-16.6”, “vehicle (1.7%” for “vehicle (3%”, “in Greiner low volume” for “in NUNC”
It is noted that there are two assay formats shown above for the Fluorescence anisotropy kinase binding assay. The only difference between these two assays is the volume used and the plate type. […] The results described herein may have been performed in either assay format and are not differentiated as to which.

[3] = target: T1, Recombinant human p38α; assay: Time-resolved fluorescence resonance energy transfer (TR-FRET) kinase assay (standard and low volume); format: biochemical
Procedure: Time-Resolved Fluorescence Resonance Energy Transfer Linase Standard Assay
(§3) Recombinant human p38α was expressed as a His-tagged protein. To activate this protein, 3 μM unactivated p38α was incubated in 200 mM Hepes pH 7.4, 625 mM NaCl, 1 mM DTT with 27 nM active MKK6 (Upstate), 1 mM ATP and 10 mM MgCl2 The activity of the MKK6-activated p38α was assessed using a time-resolved fluorescence resonance energy transfer (TR-FRET) assay.
Biotinylated-GST-ATF2 (residues 19-96, 400 nM final), ATP ([…]) and MgCl2 (5 mM final) in assay buffer (40 mM HEPES pH 7.4, 1 mM DTT) were added to wells containing 1 ul of various concentrations of compound or DMSO vehicle (3% final) in NUNC 384 well black plate. The reaction was initiated by the addition of MKK6-activated p38 (100 pM final) to give a total volume of 30 ul. The reaction was incubated for 120 minutes at room temperature, then terminated by the addition of 15 μl of 100 mM EDTA pH 7.4. Detection reagent (15 μl) in buffer (100 mM HEPES pH 7.4, 150 mM NaCl, 0.1% w/v BSA, 1 mM DTT) containing antiphosphothreonine-ATF2-71 polyclonal antibody (Cell Signalling Technology, Beverly Mass., USA) labelled with W-1024 europium chelate (Wallac O Y, Turku, Finland), and APC-labelled streptavidin (Prozyme, San Leandro, Calif., USA) was added and the reaction was further incubated for 60 minutes at room temperature. The degree of phosphorylation of GST-ATF2 was measured using a Packard Discovery plate reader (Perkin-Elmer Life Sciences, Pangbourne, UK) as a ratio of specific 665 nm energy transfer signal to reference europium 620 nm signal.
Time-Resolved Fluorescence Resonance Energy Transfer Kinase Low Volume Assay
as §3, with “pH7.4,” for “pH 7.4,”
Biotinylated-GST-ATF2 (residues 19-96, 400 nM final), ATP (125 μM final) and MgCl2 (5 mM final) in assay buffer (40 mM HEPES pH 7.4, 1 mM DTT) were added to wells containing 0.1 μl of various concentrations of compound or DMSO vehicle (1.7% final) in Greiner low volume 384 well black plate. The reaction was initiated by the addition of MKK6-activated p38α (100 pM final) to give a total volume of 6 μl. […] The degree of phosphorylation of GST-ATF2 was measured using a BMG Rubystar plate reader (BMG, UK) as a ratio of specific 665 nm energy transfer signal to reference europium 620 nm signal.
It is noted that there are two assay formats shown above for the Time-resolved fluorescence resonance energy transfer kinase assay. […]

[4] = tested on: influx of neutrophils to the lung in LPS-challenged rats; assay: Rat LPS neutrophilia model; format: in vivo; conditions: LPS aerosol, intratracheal dosing, in at least one of the range of conditions tested, significance p<0.05
In short: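 Compound given intratracheally (200 ul suspension or dry powder via microsprayer) to isoflurane-anesthetized rats 15 min–24 h before 15 min LPS aerosol (100 ug/ml). Lavage 4 h post-challenge; neutrophils from differential counts. % inhibition versus no-compound controls at a given concentration and pretreat time.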

[5] = tested on: LPS-stimulated TNFalpha production in human whole blood; assay: LPS-stimulated cytokine production in human whole blood; format: cell-based; conditions: LPS 50 ng/ml final, 4 hour incubation, read-out: IC50, LPS-stimulated TNF-alpha production in human whole blood
Procedure: LPS-Stimulated Cytokine Production in Human Whole Blood
Assay: Test compound concentrations were prepared at 10× concentrations and LPS prepared at 1 ug/ml (final conc. of 50 ng/ml LPS) and added in 50 uL volumes to 1.5 mL eppendorf tubes. Heparinized human whole blood was obtained from healthy volunteers and was dispensed into eppendorf tubes or multiwell plates containing compounds and LPS in 0.2-0.4 mL volumes and the tubes incubated at 37 C. In some studies, compound was incubated with blood for up to 30 min prior to addition of LPS. Following a 4 hour incubation, the tubes or plates were centrifuged to remove cells and plasma was withdrawn and frozen at −80 C.
Cytokine measurement: IL-Ibeta and/or TNFalpha were quantified using a standardized ELISA, or similar technology.

[6] = 12 nM p38α, 5 nM fluorescent ligand, 5.1 to 8.4 is stated collectively for the listed examples, read-out: pIC50, fluorescence anisotropy kinase binding assay (converted)
[7] = no IC50 at a concentration of less than 16 uM, read-out: IC50, fluorescence anisotropy kinase binding assay
[8] = for 97(b) and 115 a broad range over multiple runs, lower end less than 4.6, read-out: pIC50, TR-FRET p38α kinase assay (converted)

T1 sequence (Q16539 whole entry): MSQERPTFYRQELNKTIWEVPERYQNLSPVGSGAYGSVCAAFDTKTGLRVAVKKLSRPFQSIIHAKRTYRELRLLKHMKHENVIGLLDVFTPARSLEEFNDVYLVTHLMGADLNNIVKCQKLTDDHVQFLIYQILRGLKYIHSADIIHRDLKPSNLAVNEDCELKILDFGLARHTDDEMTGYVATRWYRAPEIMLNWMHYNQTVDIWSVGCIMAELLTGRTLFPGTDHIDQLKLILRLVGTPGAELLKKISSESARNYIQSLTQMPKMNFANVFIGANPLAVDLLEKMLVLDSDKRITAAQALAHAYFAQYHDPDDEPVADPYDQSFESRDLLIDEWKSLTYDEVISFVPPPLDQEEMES

## Cc1ccc(NC(=O)c2cccs2)cc1-c1nc(NC2CC(C)(C)NC(C)(C)C2)nc2c1ccc(=O)n2-c1c(F)cccc1F [Example 9, N-(3-{8-(2,6-difluorophenyl)-7-oxo-2-[(2,2,6,6-tetramethyl-4-piperidinyl)amino]-7,8-dihydropyrido[2,3-d]pyrimidin-4-yl}-4-methylphenyl)-2-thiophenecarboxamide]
[1]
  IC50: > 0.1 µM
[2]; [6]
  IC50: > 15.8 µM
[2]; [7]
  IC50: ≥ 16 µM

## Cc1ccc(C(=O)Nc2ccc(F)cc2)cc1-c1nc(N(C)CCCN(C)C)nc2c1ccc(=O)n2-c1c(F)cccc1F [Example 115, 3-{8-(2,6-difluorophenyl)-2-[[3-(dimethylamino)propyl](methyl)amino]-7-oxo-7,8-dihydropyrido[2,3-d]pyrimidin-4-yl}-N-(4-fluorophenyl)-4-methylbenzamide]
[3]; [8]
  IC50: ≥ 0.0398 µM
[4]
  inhibition of neutrophilia: statistically nonsignificant inhibition

## CSc1nc(Cl)c2ccc(=O)n(-c3c(F)cccc3F)c2n1 [Example 1(a), 4-chloro-8-(2,6-difluorophenyl)-2-(methylthio)pyrido[2,3-d]pyrimidin-7(8H)-one]
[1]
  IC50: > 0.1 µM
[2]; [6]
  IC50: > 15.8 µM
[2]; [7]
  IC50: ≥ 16 µM

## CCN(CC)CCCNc1nc(-c2ccc(C(=O)O)cc2)c2ccc(=O)n(-c3c(F)cccc3F)c2n1 [Example 188(a), 4-[2-{[3-(diethylamino)propyl]-amino}-8-(2,6-difluorophenyl)-7-oxo-7,8-dihydropyrido[2,3-d]pyrimidin-4-yl]benzoic acid]
[3]; [8]
  IC50: > 15.8 µM
[3]; no IC50 at a concentration of less than 16 uM, read-out: IC50, TR-FRET p38α kinase assay
  IC50: ≥ 16 µM
[1]
  IC50: > 0.1 µM

## Cc1ccc(C(=O)NCCc2ccccc2)cc1-c1nc(NC(CO)CO)nc2c1ccc(=O)n2-c1c(F)cccc1F [Example 93, 3-(8-(2,6-difluorophenyl)-2-{[2-hydroxy-1-(hydroxymethyl)ethyl]amino}-7-oxo-7,8-dihydropyrido[2,3-d]pyrimidin-4-yl)-4-methyl-N-(2-phenylethyl)benzamide trifluoroacetate]
[5]
  IC50: > 1 µM

## CCCNC(=O)c1ccc(C)c(-c2nc(NCCN(C)C)nc3c2ccc(=O)n3-c2c(F)cccc2F)c1 [Example 105, 3-(8-(2,6-difluorophenyl)-2-{[2-(dimethylamino)ethyl]amino}-7-oxo-7,8-dihydropyrido[2,3-d]pyrimidin-4-yl)-4-methyl-N-propylbenzamide]
other
  melting point: 139 to 142 °C
[4]
  inhibition of neutrophilia: statistically significant inhibition

## CCCNCCNc1nc(-c2cc(C(=O)NC3CC3)ccc2C)c2ccc(=O)n(-c3c(F)cccc3F)c2n1 [Example 24, N-cyclopropyl-3-(8-(2,6-difluorophenyl)-7-oxo-2-{[2-(propylamino)ethyl]amino}-7,8-dihydropyrido[2,3-d]pyrimidin-4-yl)-4-methylbenzamide]
other
  melting point: 120 to 134 °C
[4]
  inhibition of neutrophilia: statistically nonsignificant inhibition

## Cc1ccc(C(=O)NC2CC2)cc1-c1nc(NCCN(C)C)nc2c1ccc(=O)n2-c1c(F)cccc1F [Example 25]
other
  melting point: 214.7 to 217.5 °C
[4]
  inhibition of neutrophilia: statistically nonsignificant inhibition

## Cc1ccc(NC(=O)c2ccsc2)cc1-c1nc(N2CCC(N)CC2)nc2c1ccc(=O)n2-c1c(F)cccc1F [Example 32, N-{3-[2-(4-amino-1-piperidinyl)-8-(2,6-difluorophenyl)-7-oxo-7,8-dihydropyrido[2,3-d]pyrimidin-4-yl]-4-methylphenyl}-3-thiophenecarboxamide]
other
  melting point: 183.8 to 187.9 °C
[4]
  inhibition of neutrophilia: statistically nonsignificant inhibition

## O=C(O)c1cccc(-c2nc(NC(CO)CO)nc3c2ccc(=O)n3-c2ccc(F)cc2F)c1 [Example 96(d), 3-(8-(2,4-difluorophenyl)-2-{[2-hydroxy-1-(hydroxymethyl)ethyl]amino}-7-oxo-7,8-dihydropyrido[2,3-d]pyrimidin-4-yl)benzoic acid]
[2]; [6]
  IC50: > 15.8 µM
[2]; [7]
  IC50: ≥ 16 µM

## Cc1ccc(C(=O)NC(C)C)cc1-c1nc(N(C)CCN(C)C)nc2c1ccc(=O)n2-c1c(F)cccc1F [Example 100, 3-{8-(2,6-difluorophenyl)-2-[[2-(dimethylamino)ethyl](methyl)amino]-7-oxo-7,8-dihydropyrido[2,3-d]pyrimidin-4-yl}-4-methyl-N-(1-methylethyl)benzamide]
[5]
  IC50: > 1 µM
